Biological target: SpCas9 (Streptococcus pyogenes serotype M1, UniProt Q99ZW2)
Experiment: eGFP disruption assay, SpCas9, U2OS.eGFP.PEST cells
Assay type: cell-based
Details: for Normalized Z rep1 / Z score Rep1: replicate 1; for SpCas9 eGFP disruption Rep1: replicate 1, raw readout; for Normalized Z rep2 / Z socre Rep2: replicate 2; for SpCas9 eGFP disruption Rep2: replicate 2, raw readout
Description: In some embodiments, the secondary assay may be an EGFP disruption assay. In such assay, a quantitative human cell-based reporter assay that enables rapid quantitation of targeted nuclease activities is used to characterize off-target cleavage of Cas9-based RNA guided endonucleases. In this assay, the activities of nucleases targeted to a single integrated EGFP reporter gene can be quantified by assessing loss of fluorescence signal in human U2OS.EGFP cells caused by inactivating frameshift insertion/deletion (indel) mutations introduced by error prone non-homologous end-joining (NHEJ) repair of nuclease-induced double-stranded breaks (DSBs).
In one protocol, U2OS.EGFP cells harboring a single integrated copy of an EGFP-PEST fusion gene are cultured (see e.g., Reyon et al., Nat Biotech 30, 460-465 (2012), which is herein incorporated by reference in its entirety). For transfections, 200,000 cells are Nucleofected with gRNA expression plasmid and pJDS246 together with 30 ng of a Td-tomato-encoding plasmid using the SE Cell Line 4D-Nucleofector™ X Kit (Lonza) according to the manufacturer's protocol. Cells are analyzed 2 days post-transfection using a BD LSRII flow cytometer. Transfections for optimizing gRNA/Cas9 plasmid concentration are performed in triplicate and all other transfections are performed in duplicate. PCR amplification is used for sequence verification of endogenous human genomic sites. PCR reactions are performed using Phusion Hot Start II high-fidelity DNA polymerase (NEB). Loci are amplified using touchdown PCR (98° C., 10 s; 72-62° C., −1° C./cycle, 15s; 72° C., 30 s] 10 cycles, [98° C., 10s; 62° C., 15s; 72° C., 30 s] 25 cycles). Alternatively, PCR for other targets is performed with 35 cycles at a constant annealing temperature of 68° C. or 72° C., and 3% DMSO or IM betaine, if necessary. PCR products are analyzed on a QIAXCEL capillary electrophoresis system to verify both size and purity. Validated products are treated with ExoSap-IT (Affymetrix) and sequenced by the Sanger method (MGH DNA Sequencing Core) to verify each target site.
Primary and secondary screening. The primary screen assayed a selection of unique chemical scaffolds derived from commercially available compounds and known bioactive molecular libraries (Table 7). Auto-fluorescent compounds were removed by a counter screen. Overall, the CAA was used to assay 122,409 small molecules with over 2,500 unique chemical scaffolds (FIG. 64F, Table 7). Of these compounds, 547 were selected as hits (Z score >3 in both replicates) for testing in orthogonal cell-based secondary assays. Hits were tested in duplicate in an eGFP disruption assay, wherein U2OS.eGFP.PEST cells^33 transfected with SpCas9 plasmid and eGFP-targeting gRNA plasmid were incubated with 20 μM of the compounds. In this assay, any compound that inhibited SpCas9 would rescue the loss of eGFP fluorescence. Here, toxic and auto-fluorescent compounds with a high GFP signal in cells were removed as false positives. […] Next, Applicants tested the 15 compounds in a luminescence-based gain-of-signal HiBiT knock-in assay, which involves SpCas9-mediated homology-directed tagging of GAPDH with a short peptide that luminesces upon complementation with a subunit derived from nanoluciferase.^34 Complementarily, the eGFP-disruption assay is fluorescence-based and involves error-prone DNA repair. As a counter-screen to remove false positives caused by cell death (viability <80%), the cell viability was measured after incubation.
For SAR studies and dose-response studies, 300,000 U2OS.eGFP.PEST cells were nucleofected with 300 ng of SpCas9 plasmid (Addgene #43861) and 30 ng of eGFP-targeting gRNA plasmid (Addgene #47511)^33 using SE Cell Line 4D-Nucleofector X Kit (Lonza) following the pulse program of DN-100. For RNP-based genome editing, 10 pmol of SpCas9 (GenScript #Z03385) and 12 pmol of gRNA were mixed and incubated for 5 min. […]

Sequence of SpCas9 (Q99ZW2 whole entry): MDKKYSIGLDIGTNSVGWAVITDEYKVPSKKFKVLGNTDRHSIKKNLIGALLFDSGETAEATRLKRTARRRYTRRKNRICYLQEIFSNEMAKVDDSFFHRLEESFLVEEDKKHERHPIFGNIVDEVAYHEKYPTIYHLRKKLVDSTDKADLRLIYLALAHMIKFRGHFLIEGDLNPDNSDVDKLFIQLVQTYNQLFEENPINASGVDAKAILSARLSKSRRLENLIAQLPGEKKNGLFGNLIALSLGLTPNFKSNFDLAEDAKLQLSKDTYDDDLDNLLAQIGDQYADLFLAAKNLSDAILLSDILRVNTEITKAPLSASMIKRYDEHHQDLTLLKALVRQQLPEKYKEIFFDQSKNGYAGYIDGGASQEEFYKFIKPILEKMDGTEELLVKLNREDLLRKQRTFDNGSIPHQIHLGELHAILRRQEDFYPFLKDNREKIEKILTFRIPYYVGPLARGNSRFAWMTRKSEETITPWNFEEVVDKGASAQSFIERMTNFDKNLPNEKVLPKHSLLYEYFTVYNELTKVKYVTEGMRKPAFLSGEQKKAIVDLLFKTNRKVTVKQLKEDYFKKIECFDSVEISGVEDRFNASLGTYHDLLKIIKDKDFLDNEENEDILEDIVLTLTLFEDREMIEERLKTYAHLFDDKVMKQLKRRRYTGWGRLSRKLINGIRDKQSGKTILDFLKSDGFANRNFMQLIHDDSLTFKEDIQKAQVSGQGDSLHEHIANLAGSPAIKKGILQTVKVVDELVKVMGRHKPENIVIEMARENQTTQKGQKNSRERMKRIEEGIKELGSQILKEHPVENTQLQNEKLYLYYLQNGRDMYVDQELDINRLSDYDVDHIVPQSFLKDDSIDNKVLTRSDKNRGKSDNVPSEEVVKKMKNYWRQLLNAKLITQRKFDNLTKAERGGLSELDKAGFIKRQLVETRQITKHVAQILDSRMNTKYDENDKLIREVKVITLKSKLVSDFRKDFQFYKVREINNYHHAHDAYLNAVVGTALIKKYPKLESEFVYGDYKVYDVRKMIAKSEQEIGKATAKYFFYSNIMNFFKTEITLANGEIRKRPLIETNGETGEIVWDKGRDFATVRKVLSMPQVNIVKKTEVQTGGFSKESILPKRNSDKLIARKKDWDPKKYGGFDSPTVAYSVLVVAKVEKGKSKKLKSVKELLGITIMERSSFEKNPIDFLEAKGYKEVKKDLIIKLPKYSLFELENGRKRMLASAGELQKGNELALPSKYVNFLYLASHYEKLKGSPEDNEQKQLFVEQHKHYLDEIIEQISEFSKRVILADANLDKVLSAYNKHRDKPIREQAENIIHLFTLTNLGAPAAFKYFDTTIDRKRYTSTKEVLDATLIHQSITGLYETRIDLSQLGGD

| SMILES | Normalized Z rep1 | Z score Rep1 | SpCas9 eGFP disruption Rep1 | Normalized Z rep2 | Z socre Rep2 | SpCas9 eGFP disruption Rep2 |
| --- | --- | --- | --- | --- | --- | --- |
| c1ccc(-c2nnc3sc(-c4ccc5c(c4)OCO5)nn23)nc1 [Compound D727-0536] | −0.16 | −1.18 | 63.106 | −0.09 | −0.86 | 60.482 |
| O=C(NCC1CCCO1)c1sc(=S)n2c1[nH]c(=O)c1cc3c(cc12)OCO3 (stereo not drawn) [Compound F083-0416] | −0.32 | −2.28 | 59.472 | −0.05 | −0.49 | 61.595 |
| CCC(=O)Nc1ccccc1Sc1cc(C)nc2ncnn12 [Compound F518-0049] | −0.09 | −0.86 | 62.276 | −0.23 | −3.42 | 60.623 |
| CN(C)c1ccc(-c2nn3c(-c4ccc5ccccc5n4)nnc3s2)cc1 [Compound D727-0755] | −0.11 | −0.83 | 64.271 | −0.09 | −0.79 | 60.694 |
| Cc1ccc(-c2nn3c(-c4cccnc4)nnc3s2)cc1 [Compound D727-0047] | −0.34 | −2.47 | 58.846 | −0.29 | −2.72 | 54.891 |
| Fc1cccc(-c2nnc3sc(CCCc4ccccc4)nn23)c1 [Compound D727-0404] | −0.14 | −0.99 | 63.741 | −0.34 | −3.13 | 53.633 |
| COc1ccc(-c2nn3c(-c4ccc5ccccc5n4)nnc3s2)cc1OC [Compound D727-0743] | −0.03 | −0.23 | 66.254 | −0.13 | −1.19 | 59.503 |
| Brc1cccc(-c2nn3c(-c4ccccn4)nnc3s2)c1 [Compound D727-0489] | −0.24 | −1.76 | 61.183 | −0.06 | −0.58 | 61.347 |
| Cc1nn(-c2ccccc2)c(C)c1CCc1nn2c(-c3cccc(F)c3)nnc2s1 [Compound D727-0828] | −0.36 | −2.61 | 58.376 | −0.14 | −1.34 | 59.045 |
| Brc1cccc(-c2nn3c(-c4cccnc4)nnc3s2)c1 [Compound D727-0051] | 0.02 | 0.13 | 67.429 | 0.08 | 0.79 | 65.459 |
| NC(=O)c1sc(=S)n2c1[nH]c(=O)c1cc(Cl)ccc12 [Compound F083-0005] | −0.23 | −1.66 | 61.541 | −0.12 | −1.09 | 59.801 |
| Clc1cccc(-c2nnc3sc(-c4ccc5ccccc5n4)nn23)c1 [Compound D727-0890] | −0.17 | −1.24 | 62.913 | −0.22 | −2.01 | 57.037 |

From patent US20240115557A1, “INHIBITORS OF RNA-GUIDED NUCLEASES AND USES THEREOF” (The Brigham and Women's Hospital, Inc., priority 2022, published 2024)
